Measurements taken from DBAASP.
Converted amounts (≈) assume the structure as drawn. “And” between values parts separate entries of the source, which are not always exact repeats. Identical values can stand only once. One block for each compound: values may come before it.

What was measured:
Test in all cases: ≥ marks a high value that may be exact or a test limit, other limits are often not marked, values filed in µg/mL are converted to µM
[1] = tested on: Escherichia coli ATCC 25922
[2] = tested on: Staphylococcus aureus
[3] = tested on: Escherichia coli
[4] = tested on: Pseudomonas aeruginosa
[5] = tested on: Staphylococcus aureus ATCC 25923

Compound: CC[C@H](C)[C@H](NC(=O)[C@H](Cc1ccc(O)cc1)NC(=O)[C@H](Cc1c[nH]c2ccccc12)NC(=O)[C@H](CC(C)C)NC(=O)[C@H](Cc1c[nH]c2ccccc12)NC(=O)[C@H](CCCN=C(N)N)NC(=O)[C@@H](NC(=O)[C@@H](NC(=O)[C@H](CCCN=C(N)N)NC(=O)[C@H](Cc1ccccc1)NC(=O)[C@H](Cc1c[nH]c2ccccc12)NC(=O)[C@H](CCCN=C(N)N)NC(=O)[C@H](Cc1c[nH]c2ccccc12)NC(=O)[C@H](CC(C)C)NC(=O)[C@H](CCCN=C(N)N)NC(=O)[C@H](C)NC(=O)[C@H](Cc1c[nH]c2ccccc12)NC(=O)[C@@H](N)CCCCN)[C@@H](C)CC)[C@@H](C)O)C(=O)N[C@@H](CCCCN)C(N)=O [KWARLWRWFRITRWLWYIK]
MIC [2]: > 36.2 µM
MIC [3]: > 36.2 µM

Compound: CC[C@H](C)[C@H](NC(=O)[C@H](C)NC(=O)[C@H](CO)NC(=O)[C@@H](NC(=O)[C@@H](N)Cc1ccccc1)[C@@H](C)CC)C(=O)N[C@@H](C)C(=O)N[C@@H](CO)C(=O)N[C@@H](Cc1ccccc1)C(=O)N[C@@H](CC(C)C)C(=O)NCC(=O)N[C@@H](CCCCN)C(=O)N[C@@H](Cc1ccccc1)C(=O)N[C@@H](CC(C)C)C(=O)O [FISAIASFLGKFL]
MIC [2]: 130 µM (≈ 184 µg/mL)

Compound: CC[C@H](C)[C@H](NC(=O)[C@H](CCCCN)NC(=O)[C@H](CC(C)C)NC(=O)[C@@H](NC(=O)[C@H](CCCCN)NC(=O)[C@H](C)N)C(C)C)C(=O)N[C@@H](CO)C(=O)N[C@@H](CCCN=C(N)N)C(=O)N[C@@H](CCCN=C(N)N)C(=O)N[C@@H](C)C(=O)N[C@@H](Cc1ccccc1)C(=O)N[C@@H](CCCN=C(N)N)C(=O)N[C@@H](CCCCN)C(N)=O [AKVLKISRRAFRK]
MIC [1]: 22.5 µM and 63.6 µM

Compound: CC(C)[C@@H]1NC(=O)[C@@H]2CSSC[C@H](NC(=O)[C@H](Cc3ccc(O)cc3)NC(=O)[C@@H](N)CSSC[C@@H](C(=O)O)NC1=O)C(=O)N[C@@H](CCCN=C(N)N)C(=O)N[C@@H](CCCN=C(N)N)C(=O)N[C@@H](CCCN=C(N)N)C(=O)N[C@@H](Cc1ccccc1)C(=O)N2 [CYCRRRFCVC]
MIC [3]: 10.8 µM (≈ 14.1 µg/mL)

Compound: CC(C)C[C@H](NC(=O)[C@H](CCC(N)=O)NC(=O)[C@H](CCCCN)NC(=O)[C@H](CCCCN)NC(=O)[C@@H]1CCCN1C(=O)[C@H](C)N)C(=O)N[C@@H](CCCCN)C(=O)N[C@@H](Cc1c[nH]c2ccccc12)C(=O)O [APKKQLKW]
MIC [1]: 16 µM (≈ 16 µg/mL)

Compound: CC(C)C[C@H](NC(=O)[C@H](CC(C)C)NC(=O)[C@H](CCCCN)NC(=O)[C@H](CCCCN)NC(=O)[C@H](CC(C)C)NC(=O)[C@H](Cc1c[nH]c2ccccc12)NC(=O)[C@H](CCCCN)NC(=O)[C@H](CC(C)C)NC(=O)[C@@H](N)Cc1ccccc1)C(N)=O [FLKWLKKLL]
MIC [1]: 6.73 µM and 13.5 µM

Compound: CC[C@@H](C)[C@H](N=C(O)[C@H](CCCCN)N=C(O)[C@H](CS)N=C(O)[C@H](CCCCN)N=C(O)[C@H](CC(C)C)N=C(O)CN=C(O)C(CCC(=O)O)N=C(O)[C@H](CC(C)C)N=C(O)[C@H](CCCCN)N=C(O)CN=C(O)[C@H](C)N=C(O)[C@H](N=C(O)[C@H](CC(=O)O)N=C(O)[C@H](CCCCN)N=C(O)[C@H](C)N=C(O)[C@H](C)N=C(O)CN=C(O)C(CCCCN)N=C(O)C(CC(C)C)N=C(O)[C@H](N=C(O)C(CC(=O)O)N=C(O)[C@H](CC(C)C)N=C(O)[C@H](Cc1ccccc1)N=C(O)C(CC(C)C)N=C(O)CN)C(C)O)C(C)C)C(O)=N[C@H](C(O)=NCC(O)=N[C@H](CS)C(O)=N[C@H](CCCCN)C(O)=N[C@H](CC(C)C)C(=O)N1CCCC1C(=O)O)[C@@H](C)O (stereo partly drawn) [GLFLDTLKGAAKDVAGKLEGLKCKITGCKLP]
MIC [2]: 60 µM (≈ 191 µg/mL)

Compound: CC[C@H](C)[C@H](NC(=O)[C@H](CCCN=C(N)N)NC(=O)[C@H](C)NC(=O)[C@H](CC(C)C)NC(=O)[C@H](CC(C)C)NC(=O)CN)C(=O)N[C@@H](CCCCN)C(=O)N[C@H](C(=O)N[C@@H](CC(C)C)C(=O)N[C@@H](CC(C)C)C(N)=O)[C@@H](C)O [GLLARIKTLL]
MIC [5]: 25.5 µM (≈ 28 µg/mL)
MIC [1]: 14.6 µM (≈ 16 µg/mL)

Second part, the compound after the results:

MIC [1]: 6.3 µM (≈ 13.8 µg/mL)
Compound: CC[C@H](C)[C@H](NC(=O)[C@H](C)NC(=O)CNC(=O)[C@H](C)NC(=O)[C@H](CCCCN)NC(=O)[C@H](CO)NC(=O)[C@H](C)NC(=O)[C@H](CCSC)NC(=O)CN)C(=O)N[C@@H](C)C(=O)NCC(=O)N[C@@H](CCCCN)C(=O)N[C@H](C(=O)N[C@@H](C)C(=O)N[C@@H](CCCCN)C(=O)N[C@H](C(=O)N[C@@H](C)C(=O)N[C@@H](CC(C)C)C(=O)N[C@@H](CCCCN)C(=O)N[C@@H](C)C(=O)N[C@@H](CC(C)C)C(=O)NCC(=O)NCC(=O)N[C@@H](CS)C(N)=O)C(C)C)[C@@H](C)CC [GMASKAGAIAGKIAKVALKALGGC]

MIC [4]: 20.6 µM (≈ 50 µg/mL)
Compound: CC[C@H](C)[C@H](NC(=O)[C@H](Cc1ccccc1)NC(=O)[C@H](CO)NC(=O)[C@H](CCCCN)NC(=O)[C@H](Cc1c[nH]c2ccccc12)NC(=O)[C@@H](N)CCCCN)C(=O)N[C@@H](CCCCN)C(=O)N[C@@H](CCCCN)C(=O)N[C@@H](CO)C(=O)N[C@H](C(=O)N[C@@H](CO)C(=O)N[C@@H](CCCCN)C(=O)N[C@@H](Cc1ccccc1)C(=O)N[C@@H](CC(C)C)C(=O)N[C@@H](Cc1cnc[nH]1)C(=O)N[C@@H](CO)C(=O)N[C@@H](C)C(=O)N[C@@H](CCCCN)C(=O)N[C@@H](CCCCN)C(=O)N[C@@H](Cc1ccccc1)C(N)=O)[C@@H](C)O [KWKSFIKKSTSKFLHSAKKF]

MIC [1]: 2 µM (≈ 6.36 µg/mL)
Compound: CC[C@H](C)[C@H](NC(=O)CN)C(=O)N[C@@H](Cc1ccccc1)C(=O)N[C@@H](CC(C)C)C(=O)N[C@@H](CC(=O)O)C(=O)N[C@@H](CCCCN)C(=O)N[C@@H](CC(C)C)C(=O)N[C@@H](CCCCN)C(=O)N[C@@H](CC(N)=O)C(=O)N[C@@H](Cc1ccccc1)C(=O)N[C@@H](C)C(=O)N[C@@H](CCCCN)C(=O)NCC(=O)N[C@H](C(=O)N[C@@H](C)C(=O)N[C@@H](CCC(N)=O)C(=O)N[C@@H](CO)C(=O)N[C@@H](CC(C)C)C(=O)N[C@@H](CC(C)C)C(=O)N[C@@H](CC(N)=O)C(=O)N[C@@H](CCCCN)C(=O)N[C@@H](C)C(=O)N[C@@H](CO)C(=O)N[C@H]1CSSC[C@@H](C(=O)O)NC(=O)[C@H](CCC(N)=O)NC(=O)CNC(=O)[C@H](CO)NC(=O)[C@H](CC(C)C)NC(=O)[C@H](CCCCN)NC1=O)C(C)C [GIFLDKLKNFAKGVAQSLLNKASCKLSGQC]
